Results reported in US11707467B2, “(17-ß)-3-oxoandrost-4-en-17YL tridecanoate compositions and methods of their preparation and use” (Lipocine Inc., priority 2014, dated 2023).

Legend:
[1] = Pharmacokinetic study: % responders by serum testosterone Cavg and Cmax; assay type: in vivo, human
Method: Some of the dosage forms of compositions described herein comprising or prepared from substantially pure (17-β)-3-Oxoandrost-4-en-17-yl tridecanoate were administered to human subjects as a single dose of the esters to subjects. Serial blood samples were drawn at predetermined time (e.g., t=0, 12, 24, etc.) and analyzed for testosterone concentration using a validated HPLC-MS/MS analytical method. The Cmax, Cavg t1-t2, Tmax and AUCt1-t2 are calculated for testosterone in the serum of the subjects. Pharmacokinetic and statistical analyses are performed on the data obtained from the subjects. The pharmacokinetic parameters are defined as follows: • AUCt1-t2: The area under the serum concentration versus time curve, from time t1 (in hours) to time t2 (in hours) measurable concentration of the administered drug, as calculated by the linear trapezoidal method. […] This represents the average serum testosterone level over a period starting from time 0 (zero) hours to […] post-administration of dose. It should also be noted that Cavg t0-t24 is also referred to as simply “Cavg” in this invention. • Cavg t0-t12: The average serum concentration of testosterone obtained by dividing the […] value by 12. This represents the average serum testosterone level over a period starting from time 0 (zero) hours to […] post-administration of dose. • Cavg t12-t24: The average serum concentration of testosterone obtained by dividing the AUCt12-t24 value by 12. This represents the average serum testosterone level over the second half of the 24-hours post-administration of dose period; i.e., from a period starting from time 12 hours to time 24 hours post-administration of dose.

male and female mice = conditions: cited from earlier work
[2] = system: developing oocytes in female mice; conditions: cited from earlier work
[3] = starting 100 (±50) mg T equivalent QD or BID, same formulation
[4] = starting 300 (±50) mg T equivalent QD, 12-20% API, 55-70% lipophilic additive, 12-20% hydrophilic additive
[5] = starting 350 (±100) mg T equivalent BID, same formulation
[6] = starting 1000 (±200) mg T equivalent QD or BID, same formulation

Compound	% Responders with Cave t0-t24 (ng/dL) 300-1140 [1, 3]	% Responders with Cmax (ng/dL) 1800-2500 [1, 3]	% Responders with Cmax (ng/dL) >2500 [1, 3]	% Responders with Cmax (ng/dL) ≤1500 [1, 3]	% Responders with Cave t0-t24 (ng/dL) 300-1140 [1, 4]	% Responders with Cmax (ng/dL) 1800-2500 [1, 4]	% Responders with Cmax (ng/dL) >2500 [1, 4]	% Responders with Cmax (ng/dL) ≤1500 [1, 4]	% Responders with Cave t0-t24 (ng/dL) 300-1140 [1, 5]	% Responders with Cmax (ng/dL) 1800-2500 [1, 5]	% Responders with Cmax (ng/dL) >2500 [1, 5]	% Responders with Cmax (ng/dL) ≤1500 [1, 5]	% Responders with Cave t0-t24 (ng/dL) 300-1140 [1, 6]	% Responders with Cmax (ng/dL) 1800-2500 [1, 6]	% Responders with Cmax (ng/dL) >2500 [1, 6]	% Responders with Cmax (ng/dL) ≤1500 [1, 6]	Carcinogenicity (male and female mice)	Effect on developing oocytes [2]
CCCCCCCCCCCCC(=O)O[C@H]1CC[C@H]2[C@@H]3CCC4=CC(=O)CC[C@]4(C)[C@H]3CC[C@]12C [(17-β)-3-Oxoandrost-4-en-17-yl tridecanoate]	50-65%	0-5%	0-1%	100%	100%	0-5%	0-1%	100%	100%	0-5%	0-1%	100%	100%	20-30%	60-80%	0%	–	–
C[C@]12CCC(=O)C=C1CC[C@@H]1[C@@H]2CC[C@]2(C)C(=O)CC[C@@H]12 [androstenedione]	–	–	–	–	–	–	–	–	–	–	–	–	–	–	–	–	carcinogenic	induces abnormalities in morphology and function of developing oocytes
